Assay results reported in article PMC10824666 (Nature Cancer, 2023).
Where two headings read alike, the source gives them in different places. One block for each molecule: values may come before it.

Legend:
Test in all cases: biochemical
Design in all cases: Eurofins DiscoverX kinase panel, competitive binding assay at 1 uM, percent of DMSO control
Conditions in all cases: competitive binding, percent of DMSO control
c-KIT = c-KIT (Homo sapiens, UniProt P10721)
Procedure, shortened: (§1)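 Single-point profiling at 1 µM compound in a competition-binding format against 96 kinases, read out as POC relative to control; n = 1.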

MAP4K1 = MAP4K1 (Homo sapiens, UniProt Q92918)
Chain of MAP4K1 (Q92918 whole entry): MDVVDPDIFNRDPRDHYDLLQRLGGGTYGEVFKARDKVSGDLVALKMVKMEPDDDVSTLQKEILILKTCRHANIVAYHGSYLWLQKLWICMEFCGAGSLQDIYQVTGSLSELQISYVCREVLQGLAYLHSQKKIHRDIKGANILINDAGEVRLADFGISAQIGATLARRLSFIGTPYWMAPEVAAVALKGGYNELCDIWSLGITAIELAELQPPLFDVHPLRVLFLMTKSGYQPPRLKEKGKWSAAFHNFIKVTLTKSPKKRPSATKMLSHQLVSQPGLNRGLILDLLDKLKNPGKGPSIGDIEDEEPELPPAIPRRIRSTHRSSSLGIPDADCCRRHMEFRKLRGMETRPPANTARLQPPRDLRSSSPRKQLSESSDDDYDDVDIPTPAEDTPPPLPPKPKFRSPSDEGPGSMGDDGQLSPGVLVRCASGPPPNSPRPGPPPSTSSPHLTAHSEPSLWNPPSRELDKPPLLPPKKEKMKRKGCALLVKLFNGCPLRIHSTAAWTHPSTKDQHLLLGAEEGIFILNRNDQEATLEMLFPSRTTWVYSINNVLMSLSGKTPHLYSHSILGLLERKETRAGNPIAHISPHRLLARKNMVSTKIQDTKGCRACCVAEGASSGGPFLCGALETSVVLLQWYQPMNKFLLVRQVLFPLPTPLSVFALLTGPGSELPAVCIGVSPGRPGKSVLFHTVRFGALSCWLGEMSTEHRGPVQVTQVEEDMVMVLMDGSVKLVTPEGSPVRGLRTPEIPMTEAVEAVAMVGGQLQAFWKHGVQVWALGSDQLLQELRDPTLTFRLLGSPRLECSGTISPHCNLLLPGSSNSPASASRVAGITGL
Procedure, shortened: as §1

RSK 1 = molecular target: T1, RSK 1 (Homo sapiens, UniProt Q15418)
T1 construct: gene RPS6KA1
Procedure, shortened: as §1

CDK4 = CDK4 (Homo sapiens, UniProt P11802)
Chain of CDK4 (P11802 whole entry): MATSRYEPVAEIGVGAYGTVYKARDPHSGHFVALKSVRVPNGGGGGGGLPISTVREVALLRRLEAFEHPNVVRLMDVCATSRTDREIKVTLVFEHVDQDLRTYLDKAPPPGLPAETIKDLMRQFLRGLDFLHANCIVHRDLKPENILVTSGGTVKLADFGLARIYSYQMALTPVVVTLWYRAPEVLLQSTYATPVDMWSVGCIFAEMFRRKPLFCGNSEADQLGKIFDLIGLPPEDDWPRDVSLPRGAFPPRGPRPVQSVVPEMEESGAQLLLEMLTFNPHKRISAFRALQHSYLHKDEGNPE
Procedure, shortened: as §1

MAPKAPK2 = MAPKAPK2 (Homo sapiens, UniProt P49137)
Chain of MAPKAPK2 (P49137 whole entry): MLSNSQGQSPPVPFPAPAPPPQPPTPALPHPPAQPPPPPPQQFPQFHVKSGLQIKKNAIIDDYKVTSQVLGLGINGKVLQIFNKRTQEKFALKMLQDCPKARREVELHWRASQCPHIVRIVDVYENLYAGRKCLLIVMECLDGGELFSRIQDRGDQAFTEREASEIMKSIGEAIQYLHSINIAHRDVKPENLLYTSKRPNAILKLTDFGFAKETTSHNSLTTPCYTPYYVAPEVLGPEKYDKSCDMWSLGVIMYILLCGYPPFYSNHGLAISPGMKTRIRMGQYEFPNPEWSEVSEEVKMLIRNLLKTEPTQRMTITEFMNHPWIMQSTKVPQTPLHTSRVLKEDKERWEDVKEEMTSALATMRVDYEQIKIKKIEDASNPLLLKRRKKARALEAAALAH
Procedure, shortened: as §1

TGFBR1 = molecular target: T2, TGFBR1 (Homo sapiens, UniProt P36897)
T2 sequence (P36897 1-503): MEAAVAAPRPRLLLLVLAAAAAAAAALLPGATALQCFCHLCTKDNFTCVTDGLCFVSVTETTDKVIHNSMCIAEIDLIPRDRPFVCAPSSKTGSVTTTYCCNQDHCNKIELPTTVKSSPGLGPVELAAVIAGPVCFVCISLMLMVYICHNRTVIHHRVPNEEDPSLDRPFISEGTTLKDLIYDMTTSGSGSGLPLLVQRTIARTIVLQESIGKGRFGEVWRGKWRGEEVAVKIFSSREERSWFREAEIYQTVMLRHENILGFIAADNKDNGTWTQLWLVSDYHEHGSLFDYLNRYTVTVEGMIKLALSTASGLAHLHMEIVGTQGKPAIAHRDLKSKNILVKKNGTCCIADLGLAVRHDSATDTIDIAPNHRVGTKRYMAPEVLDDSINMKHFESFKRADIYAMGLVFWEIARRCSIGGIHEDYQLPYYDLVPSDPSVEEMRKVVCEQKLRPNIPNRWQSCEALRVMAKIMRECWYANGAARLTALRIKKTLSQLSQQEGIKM
Procedure, shortened: as §1

LYN = LYN (Homo sapiens, UniProt P07948)
Chain of LYN (P07948 whole entry): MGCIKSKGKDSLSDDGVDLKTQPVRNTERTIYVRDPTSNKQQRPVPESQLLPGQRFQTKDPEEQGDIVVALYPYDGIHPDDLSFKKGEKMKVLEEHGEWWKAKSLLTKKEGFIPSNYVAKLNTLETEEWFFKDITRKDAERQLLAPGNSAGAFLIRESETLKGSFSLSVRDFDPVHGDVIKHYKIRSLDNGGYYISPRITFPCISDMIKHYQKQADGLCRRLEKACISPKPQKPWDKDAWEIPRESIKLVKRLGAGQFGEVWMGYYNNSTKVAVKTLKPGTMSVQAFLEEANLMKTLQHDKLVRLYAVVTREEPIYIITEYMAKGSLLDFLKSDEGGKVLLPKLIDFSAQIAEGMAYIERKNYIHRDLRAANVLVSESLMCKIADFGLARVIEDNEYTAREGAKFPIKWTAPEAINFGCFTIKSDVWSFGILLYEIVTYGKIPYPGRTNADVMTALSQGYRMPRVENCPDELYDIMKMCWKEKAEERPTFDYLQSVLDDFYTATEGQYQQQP
Procedure, shortened: as §1

c-MET = c-MET (Homo sapiens, UniProt P08581)
Chain of c-MET (P08581 whole entry): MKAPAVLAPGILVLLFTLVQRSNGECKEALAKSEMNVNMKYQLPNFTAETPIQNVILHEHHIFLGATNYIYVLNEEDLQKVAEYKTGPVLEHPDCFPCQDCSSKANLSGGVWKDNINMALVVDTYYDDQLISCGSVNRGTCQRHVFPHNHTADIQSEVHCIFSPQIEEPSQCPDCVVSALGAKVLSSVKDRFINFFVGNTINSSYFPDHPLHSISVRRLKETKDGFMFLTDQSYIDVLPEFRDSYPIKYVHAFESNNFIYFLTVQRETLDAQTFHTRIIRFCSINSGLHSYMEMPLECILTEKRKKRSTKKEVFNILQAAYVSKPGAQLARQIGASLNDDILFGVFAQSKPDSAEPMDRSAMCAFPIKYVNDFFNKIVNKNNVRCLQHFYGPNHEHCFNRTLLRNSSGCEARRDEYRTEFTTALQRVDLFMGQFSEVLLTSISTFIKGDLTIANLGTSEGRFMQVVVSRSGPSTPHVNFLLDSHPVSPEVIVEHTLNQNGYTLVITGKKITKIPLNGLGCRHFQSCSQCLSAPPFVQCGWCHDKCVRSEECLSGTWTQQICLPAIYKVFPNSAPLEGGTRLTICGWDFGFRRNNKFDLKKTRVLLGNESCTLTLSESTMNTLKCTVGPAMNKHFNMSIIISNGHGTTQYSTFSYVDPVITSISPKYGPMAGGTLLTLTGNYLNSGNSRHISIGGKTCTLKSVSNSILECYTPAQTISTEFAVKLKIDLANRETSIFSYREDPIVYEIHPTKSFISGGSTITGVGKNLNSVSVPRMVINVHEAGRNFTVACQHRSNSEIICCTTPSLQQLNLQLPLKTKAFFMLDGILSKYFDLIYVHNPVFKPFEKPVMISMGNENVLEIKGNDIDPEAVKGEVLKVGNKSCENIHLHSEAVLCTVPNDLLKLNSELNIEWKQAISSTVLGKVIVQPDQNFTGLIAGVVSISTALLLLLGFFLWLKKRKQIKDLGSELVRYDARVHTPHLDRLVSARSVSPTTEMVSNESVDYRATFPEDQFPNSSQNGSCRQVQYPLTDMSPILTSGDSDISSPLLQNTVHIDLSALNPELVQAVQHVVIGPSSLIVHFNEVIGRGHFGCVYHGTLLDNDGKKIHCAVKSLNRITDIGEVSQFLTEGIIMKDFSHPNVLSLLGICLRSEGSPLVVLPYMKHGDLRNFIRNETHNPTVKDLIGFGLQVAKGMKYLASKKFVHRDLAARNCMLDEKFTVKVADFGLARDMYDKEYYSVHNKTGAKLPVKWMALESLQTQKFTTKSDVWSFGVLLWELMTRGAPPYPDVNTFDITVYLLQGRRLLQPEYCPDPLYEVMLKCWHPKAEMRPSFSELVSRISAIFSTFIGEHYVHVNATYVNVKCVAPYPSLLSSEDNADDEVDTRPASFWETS
Procedure, shortened: as §1

[1] = read-out: Kinome Profiling performed by Eurofins DiscoverX / AM-1882, 1.0 µM / POC
[2] = read-out: Kinome Profiling performed by Eurofins DiscoverX / AM-5308, 1.0 µM / POC
[3] = read-out: Kinome Profiling performed by Eurofins DiscoverX / AM-0277, 1.0 µM / POC

Chain of c-KIT (P10721 whole entry): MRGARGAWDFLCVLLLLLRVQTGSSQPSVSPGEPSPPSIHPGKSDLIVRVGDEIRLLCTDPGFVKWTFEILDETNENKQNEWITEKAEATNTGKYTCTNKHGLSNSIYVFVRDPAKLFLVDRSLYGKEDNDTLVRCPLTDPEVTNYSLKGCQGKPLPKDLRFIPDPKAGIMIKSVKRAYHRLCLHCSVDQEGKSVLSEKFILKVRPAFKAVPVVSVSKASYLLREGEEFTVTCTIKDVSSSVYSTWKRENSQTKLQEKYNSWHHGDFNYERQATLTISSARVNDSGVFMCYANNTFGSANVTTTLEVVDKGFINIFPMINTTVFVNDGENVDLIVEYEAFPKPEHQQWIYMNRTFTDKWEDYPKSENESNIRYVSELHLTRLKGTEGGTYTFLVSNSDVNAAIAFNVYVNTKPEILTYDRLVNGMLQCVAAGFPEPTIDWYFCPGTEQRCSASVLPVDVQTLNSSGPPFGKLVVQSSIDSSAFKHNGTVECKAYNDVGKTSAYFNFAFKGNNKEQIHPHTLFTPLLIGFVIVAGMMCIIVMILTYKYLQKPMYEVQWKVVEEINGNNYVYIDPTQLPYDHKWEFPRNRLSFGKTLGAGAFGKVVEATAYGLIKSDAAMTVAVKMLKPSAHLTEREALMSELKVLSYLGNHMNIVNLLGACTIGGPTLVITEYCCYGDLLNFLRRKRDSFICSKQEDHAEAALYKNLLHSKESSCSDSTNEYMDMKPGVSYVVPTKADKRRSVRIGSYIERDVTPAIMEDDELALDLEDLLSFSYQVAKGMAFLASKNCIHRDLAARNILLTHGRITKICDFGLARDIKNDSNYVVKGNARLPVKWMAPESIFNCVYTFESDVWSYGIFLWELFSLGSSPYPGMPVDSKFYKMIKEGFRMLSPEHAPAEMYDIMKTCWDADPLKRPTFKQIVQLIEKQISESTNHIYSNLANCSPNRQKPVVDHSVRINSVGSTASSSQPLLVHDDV

remaining activity at 1 µM (c-KIT; [1]): 100%
remaining activity at 1 µM (MAP4K1; [1]): 90%
remaining activity at 1 µM (RSK 1; [1]): 100%
remaining activity at 1 µM (CDK4; [1]): 64%
remaining activity at 1 µM (MAPKAPK2; [1]): 95.5%
remaining activity at 1 µM (TGFBR1; [1]): 94%
remaining activity at 1 µM (LYN; [1]): 99.5%
remaining activity at 1 µM (c-MET; [1]): 100%
Compound: CC(C)(C)NS(=O)(=O)c1cccc(NC(=O)c2ccc(S(=O)(=O)NC(C)(C)C)cc2N2CCC3(CC2)CC3)c1 [AM-1882]

remaining activity at 1 µM (c-KIT; [2]): 100%
remaining activity at 1 µM (MAP4K1; [2]): 98.5%
remaining activity at 1 µM (RSK 1; [2]): 91.5%
remaining activity at 1 µM (CDK4; [2]): 98.5%
remaining activity at 1 µM (MAPKAPK2; [2]): 95%
remaining activity at 1 µM (TGFBR1; [2]): 100%
remaining activity at 1 µM (LYN; [2]): 86.5%
remaining activity at 1 µM (c-MET; [2]): 92%
Compound: C[C@@H]1CN(c2cccc(NC(=O)c3ccc(NS(=O)(=O)CCO)cc3N3CCC4(CC3)CC4)n2)CCO1 [AM-5308]

remaining activity at 1 µM (c-KIT; [3]): 92%
remaining activity at 1 µM (MAP4K1; [3]): 88%
remaining activity at 1 µM (RSK 1; [3]): 100%
remaining activity at 1 µM (CDK4; [3]): 100%
remaining activity at 1 µM (MAPKAPK2; [3]): 79%
remaining activity at 1 µM (TGFBR1; [3]): 73%
remaining activity at 1 µM (LYN; [3]): 100%
remaining activity at 1 µM (c-MET; [3]): 89%
Compound: CC(C)(CO)Nc1ccc(C(=O)Nc2cccc(S(=O)(=O)C3CCCC3)c2)c(N2CCC3(CC2)CC3)n1 [AM-0277]
